Data taken from article PMC12421961, “PmeR, a TetR-like transcriptional regulator, is involved in both auxin signaling and virulence in the plant pathogen Pseudomonas syringae strain PtoDC3000” (mBio, 2025).

Columns and labels:
[1] = biological target: T1, PmeR (Pseudomonas syringae group genomosp. 3, UniProt Q87X86); test: EMSA, release of PmeR from […]-labelled operator DNA; format: binding; conditions: 6.25 nM PmeR, 1.5 nM pmeR-mexA intergenic DNA probe, pH 8.0, 25 °C; lowest complete-release concentration in a dilution series, not a Kd or IC50
T1 construct: gene PSPTO_4302; full-length coding region (672 bp), N-terminal His tag, pET-28a, E. coli BL21(DE3), codon-optimized; nickel column; tag removal not mentioned

[2] = biological target: T2, PmeR (TetR-like regulator) (Pseudomonas syringae strain PtoDC3000) (UniProt Q87X86); test: competition; conditions: 25 mM Tris-acetate pH 8.0, 8 mM Mg-acetate, 10 mM KCl, 1 mM DTT, 460 uM HCl ([…]
T2 sequence: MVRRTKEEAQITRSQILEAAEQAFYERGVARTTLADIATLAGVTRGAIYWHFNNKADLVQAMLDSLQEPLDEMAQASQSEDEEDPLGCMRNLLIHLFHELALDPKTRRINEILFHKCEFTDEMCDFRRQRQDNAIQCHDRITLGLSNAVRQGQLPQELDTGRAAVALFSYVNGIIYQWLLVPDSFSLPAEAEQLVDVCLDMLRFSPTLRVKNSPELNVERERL

Compound | concentration sufficient for complete shift to unbound DNA [1] [µM] | binding [2]
N[C@@H](CCCCNC(=O)Cc1c[nH]c2ccccc12)C(=O)O [IAA-Lys] | 750 | –
CGGAATTCGGTGCGACGAACCATGGCAATAAGACCTCAAAAGATTCACCTCATGCGTGCATCTGGTGCATGCCTTGAGGTATGACCGGGCGGCATTTGTCTCGCCTTGTCCCGAACTGGCATTCAGCACCTTGAATAGTGGCCGAATGCGCAAAGCGGGTGTTTACAAACAACCGCGAATGTAAGTATATTCCTTAGCATGCTACTTATCTAGCCGAAATATTTTTTAACACTTCAACGTACTGTTGAGAAAACAGGCTCCTGCCCCGAGGATCTTCGGTACCCC (double strand) [pmeR-mexA intergenic region probe] | – | binds
